The source of these data is paper PMC7881127, “Cholesterol as a modulator of cannabinoid receptor CB2 signaling” (Scientific Reports, 2021).

The assay deals with T1, hCB2 (Homo sapiens, UniProt P34972).
T1 construct: purchased PerkinElmer ES111-M400UA; host or cells: CHO-K1 cells stably transfected
Description: [35S]GTPγS binding assay in hCB2-CHO-K1 cell membranes. Format: biochemical. As for the experimental part: Figure 2 Affinity and functional effects of novel MRI ligands on CB2 receptor in CHO cell membranes. (a) binding affinities (nM) and Emax (% and nM) of [^35S]-GTPγS binding to CHO membranes (PerkinElmer, Cat. No ES111-M400UA) expressing hCB2. (b) [^35S]-GTPγS binding to membranes as a factor of ligand concentration. Binding of [^35S]-GTPγS was determined as described in “Methods”. Non-specific binding was defined as 0% activity. The assay of GTPγS non-specific binding contains non-radioactive GTPγS.
[^35S] GTPγS binding was assayed as described earlier[65] with slight modifications. Briefly, hCB2-CHO-K1 cell membranes (4 µg) were incubated with 0.05 nM [^35S] GTPγS, and the indicated concentrations of ligands in TEM buffer (50 mM Tris–HCl, 0.2 mM EGTA, and 9 mM MgCl2, pH 7.4) containing 100 µM GDP, 150 mM NaCl, and 0.1% (w/v) bovine serum albumin in a total volume of 1 ml for 60 min at 30 °C.
For orientation: Binding of GTPγS marks nucleotide exchange on a G protein.

T1 sequence (P34972 whole entry): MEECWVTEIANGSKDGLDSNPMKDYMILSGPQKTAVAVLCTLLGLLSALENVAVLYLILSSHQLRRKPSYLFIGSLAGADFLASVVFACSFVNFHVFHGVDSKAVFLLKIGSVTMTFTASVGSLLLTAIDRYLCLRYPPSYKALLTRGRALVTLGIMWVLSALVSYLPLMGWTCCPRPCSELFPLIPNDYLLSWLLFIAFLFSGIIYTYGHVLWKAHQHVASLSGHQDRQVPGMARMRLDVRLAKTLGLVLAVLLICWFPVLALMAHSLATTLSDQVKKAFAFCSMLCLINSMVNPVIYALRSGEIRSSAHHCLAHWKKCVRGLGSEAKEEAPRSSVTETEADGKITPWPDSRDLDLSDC

Regarding `CC(=O)OCCn1c(=NC(=O)C2C(C)(C)C2(C)C)sc2cc(Cl)ccc21` [MRI-2646, 2-(6-Chloro-2-((2,2,3,3-tetramethylcyclopropane-1-carbonyl)imino)benzo[d]thiazol-3(2H)-yl)ethyl acetate], the Emax (CHO membranes expressing hCB2 (PerkinElmer ES111-M400UA), read-out: GTPγS binding Emax) was -2 ± 4%. In addition, the “Functional effect on G-protein signaling (pharmacological category)” value (hCB2-expressing CHO cell membranes (PerkinElmer)) is “no effect on basal signaling”.

In general, Emax refers to the greatest response seen or fitted, relative to the assay's reference.
